Test results reported in patent US9212182B2, “Bicyclic sulfonamide compounds as sodium channel inhibitors” (AMGEN INC., priority 2013, dated 2015).

Target: Nav 1.7 (Homo sapiens (Human), UniProt Q15858)
Experiment: in-vitro Nav 1.7 PX (IC50)
Assay type: cell-based

Chain of Nav 1.7 (Q15858 whole entry): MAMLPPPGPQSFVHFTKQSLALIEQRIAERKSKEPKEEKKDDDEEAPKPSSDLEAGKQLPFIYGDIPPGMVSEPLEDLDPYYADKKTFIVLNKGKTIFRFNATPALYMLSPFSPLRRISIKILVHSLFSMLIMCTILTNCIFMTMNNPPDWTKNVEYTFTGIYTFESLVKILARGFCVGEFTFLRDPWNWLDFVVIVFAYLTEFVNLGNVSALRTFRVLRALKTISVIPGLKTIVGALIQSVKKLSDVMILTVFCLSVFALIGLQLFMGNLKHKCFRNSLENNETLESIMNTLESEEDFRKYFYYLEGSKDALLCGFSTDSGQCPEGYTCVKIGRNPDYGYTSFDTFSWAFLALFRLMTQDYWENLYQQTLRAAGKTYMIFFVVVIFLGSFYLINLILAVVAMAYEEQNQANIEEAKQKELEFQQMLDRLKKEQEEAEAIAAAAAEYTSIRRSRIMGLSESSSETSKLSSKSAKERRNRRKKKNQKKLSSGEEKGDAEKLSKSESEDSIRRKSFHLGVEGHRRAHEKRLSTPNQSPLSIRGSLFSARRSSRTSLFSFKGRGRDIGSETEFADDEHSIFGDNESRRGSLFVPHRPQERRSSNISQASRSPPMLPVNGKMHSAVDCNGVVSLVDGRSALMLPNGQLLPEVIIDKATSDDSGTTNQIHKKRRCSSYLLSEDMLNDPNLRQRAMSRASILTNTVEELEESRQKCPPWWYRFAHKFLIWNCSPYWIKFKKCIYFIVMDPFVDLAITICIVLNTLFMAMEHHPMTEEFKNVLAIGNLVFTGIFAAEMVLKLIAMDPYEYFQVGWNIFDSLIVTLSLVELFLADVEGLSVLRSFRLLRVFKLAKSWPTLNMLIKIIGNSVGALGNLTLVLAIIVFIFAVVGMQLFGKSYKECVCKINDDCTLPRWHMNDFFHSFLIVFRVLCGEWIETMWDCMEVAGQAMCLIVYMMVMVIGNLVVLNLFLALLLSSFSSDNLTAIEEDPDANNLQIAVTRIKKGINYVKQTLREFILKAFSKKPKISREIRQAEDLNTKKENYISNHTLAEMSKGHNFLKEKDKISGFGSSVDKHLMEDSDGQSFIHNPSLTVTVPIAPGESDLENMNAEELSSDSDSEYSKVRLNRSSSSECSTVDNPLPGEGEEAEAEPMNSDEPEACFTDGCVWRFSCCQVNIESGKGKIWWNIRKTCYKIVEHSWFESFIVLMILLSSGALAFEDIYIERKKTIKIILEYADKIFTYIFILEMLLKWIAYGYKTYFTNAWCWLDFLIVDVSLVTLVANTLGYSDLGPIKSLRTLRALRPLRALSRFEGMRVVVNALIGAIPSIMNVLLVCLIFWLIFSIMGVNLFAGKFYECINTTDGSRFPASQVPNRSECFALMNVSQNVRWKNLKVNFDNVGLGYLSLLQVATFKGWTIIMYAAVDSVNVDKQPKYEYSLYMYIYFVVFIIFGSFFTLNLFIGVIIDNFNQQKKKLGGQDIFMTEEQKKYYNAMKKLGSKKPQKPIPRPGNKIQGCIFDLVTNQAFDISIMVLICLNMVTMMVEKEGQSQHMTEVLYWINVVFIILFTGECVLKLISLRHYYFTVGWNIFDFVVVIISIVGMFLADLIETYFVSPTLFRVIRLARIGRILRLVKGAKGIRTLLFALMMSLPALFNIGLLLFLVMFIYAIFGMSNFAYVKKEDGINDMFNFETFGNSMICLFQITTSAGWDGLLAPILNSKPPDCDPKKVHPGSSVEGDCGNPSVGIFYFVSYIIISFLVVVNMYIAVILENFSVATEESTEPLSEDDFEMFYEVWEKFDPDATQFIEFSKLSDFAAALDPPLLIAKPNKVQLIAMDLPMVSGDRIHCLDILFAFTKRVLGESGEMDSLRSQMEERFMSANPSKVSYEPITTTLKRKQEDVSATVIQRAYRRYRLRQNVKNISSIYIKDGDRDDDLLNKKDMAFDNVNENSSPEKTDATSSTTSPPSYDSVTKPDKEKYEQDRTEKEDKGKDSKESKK

Structure (SMILES) | IC50 (in-vitro Nav 1.7 PX data) [nM] | IC50 (in-vitro Nav 1.7 PX data (PatchXpress)) [nM]
COc1cc(-c2ccc(C)c(Cl)c2)c(F)cc1-n1c(=O)ccc2cc(S(=O)(=O)Nc3ccon3)c(F)cc21 [Example 979, 1-(3′-chloro-2-fluoro-5-methoxy-4′-methyl-4-biphenylyl)-7-fluoro-N-3-isoxazolyl-2-oxo-1,2-dihydro-6-quinolinesulfonamide] | 21 | 
COc1cc(-c2cccc(C(F)(F)F)c2)c(F)cc1-n1c(=O)ccc2cc(S(=O)(=O)Nc3ccon3)c(F)cc21 [Example 980, 7-fluoro-1-(2-fluoro-5-methoxy-3′-(trifluoromethyl)-4-biphenylyl)-N-3-isoxazolyl-2-oxo-1,2-dihydro-6-quinolinesulfonamide] | 22 | 
COc1cc(-c2cccc(C(F)(F)F)c2)ccc1-n1c(=O)ccc2cc(S(=O)(=O)Nc3ncccn3)c(F)cc21 [Example 982, 7-fluoro-1-(3-methoxy-3′-(trifluoromethyl)-4-biphenylyl)-2-oxo-N-2-pyrimidinyl-1,2-dihydro-6-quinolinesulfonamide] | 38 | 
COc1cc(Br)c(F)cc1-n1c(=O)ccc2cc(S(=O)(=O)Nc3cccc(C)n3)ccc21 [Example 989, 1-(4-bromo-5-fluoro-2-methoxyphenyl)-N-(6-methyl-2-pyridinyl)-2-oxo-1,2-dihydro-6-quinolinesulfonamide] | 8610 | 
COc1cc(F)cc(-c2ccc(-n3c(=O)ccc4cc(S(=O)(=O)Nc5ncccn5)ccc43)c(OC)c2)c1 [Example 996, 1-(3′-fluoro-3,5′-dimethoxy-4-biphenylyl)-2-oxo-N-2-pyrimidinyl-1,2-dihydro-6-quinolinesulfonamide] | 52 | 
COc1cc(F)cc(-c2ccc(-n3c(=O)ccc4cc(S(=O)(=O)Nc5cccnn5)ccc43)c(OC)c2)c1 [Example 997, 1-(3′-fluoro-3,5′-dimethoxy-4-biphenylyl)-2-oxo-N-3-pyridazinyl-1,2-dihydro-6-quinolinesulfonamide] | 66 | 
COc1cc(F)cc(-c2ccc(-n3c(=O)ccc4cc(S(=O)(=O)Nc5ncc(F)cn5)ccc43)c(OC)c2)c1 [Example 998, 1-(3′-fluoro-3,5′-dimethoxy-4-biphenylyl)-N-(5-fluoro-2-pyrimidinyl)-2-oxo-1,2-dihydro-6-quinolinesulfonamide] | 89 | 
COc1cc(F)cc(-c2ccc(-n3c(=O)ccc4cc(S(=O)(=O)Nc5ccnc(C)n5)ccc43)c(OC)c2)c1 [Example 1003, 1-(3′-fluoro-3,5′-dimethoxy-4-biphenylyl)-N-(2-methyl-4-pyrimidinyl)-2-oxo-1,2-dihydro-6-quinolinesulfonamide] | 1260 | 
COc1cc(F)cc(-c2ccc(-n3c(=O)ccc4cc(S(=O)(=O)Nc5cc(C)ncn5)ccc43)c(OC)c2)c1 [Example 1004, 1-(3′-fluoro-3,5′-dimethoxy-4-biphenylyl)-N-(6-methyl-4-pyrimidinyl)-2-oxo-1,2-dihydro-6-quinolinesulfonamide] | 219 | 
COc1cc(F)cc(-c2ccc(-n3c(=O)ccc4cc(S(=O)(=O)Nc5ncco5)ccc43)c(OC)c2)c1 [Example 1005, 1-(3′-fluoro-3,5′-dimethoxy-4-biphenylyl)-N-1,3-oxazol-2-yl-2-oxo-1,2-dihydro-6-quinolinesulfonamide] | 268 | 
COc1cc(-c2cc(OC)c(-n3c(=O)ccc4cc(S(=O)(=O)Nc5ncccn5)ccc43)cc2F)ccc1F [Example 1006, 1-(2,4′-difluoro-3′,5-dimethoxy-4-biphenylyl)-2-oxo-N-2-pyrimidinyl-1,2-dihydro-6-quinolinesulfonamide] | 76 | 
COc1cc(-c2cc(OC)c(-n3c(=O)ccc4cc(S(=O)(=O)Nc5cccnn5)ccc43)cc2F)ccc1F [Example 1007, 1-(2,4′-difluoro-3′,5-dimethoxy-4-biphenylyl)-2-oxo-N-3-pyridazinyl-1,2-dihydro-6-quinolinesulfonamide] | 131 | 
COc1cc(-c2cc(OC)c(-n3c(=O)ccc4cc(S(=O)(=O)Nc5ccnc(C)n5)ccc43)cc2F)ccc1F [Example 1008, 1-(2,4′-difluoro-3′,5-dimethoxy-4-biphenylyl)-N-(2-methyl-4-pyrimidinyl)-2-oxo-1,2-dihydro-6-quinolinesulfonamide] | 210 | 
COc1cc(-c2cc(OC)c(-n3c(=O)ccc4cc(S(=O)(=O)Nc5cc(C)ncn5)ccc43)cc2F)ccc1F [Example 1009, 1-(2,4′-difluoro-3′,5-dimethoxy-4-biphenylyl)-N-(6-methyl-4-pyrimidinyl)-2-oxo-1,2-dihydro-6-quinolinesulfonamide] | 151 | 
COc1cc(-c2cc(OC)c(-n3c(=O)ccc4cc(S(=O)(=O)Nc5ncc(F)cn5)ccc43)cc2F)ccc1F [Example 1010, 1-(2,4′-difluoro-3′,5-dimethoxy-4-biphenylyl)-N-(5-fluoro-2-pyrimidinyl)-2-oxo-1,2-dihydro-6-quinolinesulfonamide] | 74 | 
COc1cc(-c2cc(OC)c(-n3c(=O)ccc4cc(S(=O)(=O)Nc5ncco5)ccc43)cc2F)ccc1F [Example 1011, 1-(2,4′-difluoro-3′,5-dimethoxy-4-biphenylyl)-N-1,3-oxazol-2-yl-2-oxo-1,2-dihydro-6-quinolinesulfonamide] | 207 | 
COc1cc(-c2ccc(F)c(F)c2)ccc1-n1c(=O)ccc2cc(S(=O)(=O)Nc3ccon3)ccc21 [Example 1014, 1-(3′,4′-difluoro-3-methoxy-4-biphenylyl)-N-3-isoxazolyl-2-oxo-1,2-dihydro-6-quinolinesulfonamide] | 53 | 

Structure (SMILES) | IC50 (in-vitro Nav 1.7 PX data) [nM] | IC50 (in-vitro Nav 1.7 PX data (PatchXpress)) [nM]
COc1cc(-c2cc(C)cc(F)c2)ccc1-n1c(=O)ccc2cc(S(=O)(=O)Nc3ccon3)ccc21 [Example 1015, 1-(3′-fluoro-3-methoxy-5′-methyl-4-biphenylyl)-N-3-isoxazolyl-2-oxo-1,2-dihydro-6-quinolinesulfonamide] | 12 | 
COc1cc(-c2cc(C)cc(C)c2)ccc1-n1c(=O)ccc2cc(S(=O)(=O)Nc3ccon3)ccc21 [Example 1016, N-3-isoxazolyl-1-(3-methoxy-3′,5′-dimethyl-4-biphenylyl)-2-oxo-1,2-dihydro-6-quinolinesulfonamide] | 11 | 
COc1cc(-c2ccc(-n3c(=O)ccc4cc(S(=O)(=O)Nc5ccon5)ccc43)c(OC)c2)ccc1F [Example 1017, 1-(4′-fluoro-3,3′-dimethoxy-4-biphenylyl)-N-3-isoxazolyl-2-oxo-1,2-dihydro-6-quinolinesulfonamide] | 80 | 
COc1cc(F)cc(-c2ccc(-n3c(=O)ccc4cc(S(=O)(=O)Nc5ccon5)ccc43)c(OC)c2)c1 [Example 1018, 1-(3′-fluoro-3,5′-dimethoxy-4-biphenylyl)-N-3-isoxazolyl-2-oxo-1,2-dihydro-6-quinolinesulfonamide] | 13 | 
COc1cc(-c2cccc(C#N)c2)ccc1-n1c(=O)ccc2cc(S(=O)(=O)Nc3ccon3)ccc21 [Example 1019, 1-(3′-cyano-3-methoxy-4-biphenylyl)-N-3-isoxazolyl-2-oxo-1,2-dihydro-6-quinolinesulfonamide] | 98 | 
COc1cc(-c2ccc(F)c(C#N)c2)ccc1-n1c(=O)ccc2cc(S(=O)(=O)Nc3ccon3)ccc21 [Example 1020, 1-(3′-cyano-4′-fluoro-3-methoxy-4-biphenylyl)-N-3-isoxazolyl-2-oxo-1,2-dihydro-6-quinolinesulfonamide] | 82 | 
COc1cc(-c2cc(F)cc(C#N)c2)ccc1-n1c(=O)ccc2cc(S(=O)(=O)Nc3ccon3)ccc21 [Example 1021, 1-(3′-cyano-5′-fluoro-3-methoxy-4-biphenylyl)-N-3-isoxazolyl-2-oxo-1,2-dihydro-6-quinolinesulfonamide] | 105 | 
COc1cc(-c2cc(C)cnc2OC)ccc1-n1c(=O)ccc2cc(S(=O)(=O)Nc3ccon3)ccc21 [Example 1022, N-3-isoxazolyl-1-(2-methoxy-4-(2-methoxy-5-methyl-3-pyridinyl)phenyl)-2-oxo-1,2-dihydro-6-quinolinesulfonamide] | 139 | 
COc1cc(-c2cc(Cl)cc(Cl)c2)ccc1-n1c(=O)ccc2cc(S(=O)(=O)Nc3ccon3)ccc21 [Example 1023, 1-(3′,5′-dichloro-3-methoxy-4-biphenylyl)-N-3-isoxazolyl-2-oxo-1,2-dihydro-6-quinolinesulfonamide] | 9 | 
COc1cc(-c2cc(F)c(F)cc2F)ccc1-n1c(=O)ccc2cc(S(=O)(=O)Nc3ccon3)ccc21 [Example 1024, N-3-isoxazolyl-2-oxo-1-(2′,4′,5′-trifluoro-3-methoxy-4-biphenylyl)-1,2-dihydro-6-quinolinesulfonamide] | 62 | 
COc1ccc(-c2ccc(-n3c(=O)ccc4cc(S(=O)(=O)Nc5ccon5)ccc43)c(OC)c2)cc1Cl [Example 1026, 1-(3′-chloro-3,4′-dimethoxy-4-biphenylyl)-N-3-isoxazolyl-2-oxo-1,2-dihydro-6-quinolinesulfonamide] | 59 | 
COc1cc(-c2ccc(-n3c(=O)ccc4cc(S(=O)(=O)Nc5ccon5)ccc43)c(OC)c2)ccc1Cl [Example 1027, 1-(4′-chloro-3,3′-dimethoxy-4-biphenylyl)-N-3-isoxazolyl-2-oxo-1,2-dihydro-6-quinolinesulfonamide] | 32 | 
COc1cc(-c2cccc(Cl)c2C)ccc1-n1c(=O)ccc2cc(S(=O)(=O)Nc3ccon3)ccc21 [Example 1028, 1-(3′-chloro-3-methoxy-2′-methyl-4-biphenylyl)-N-3-isoxazolyl-2-oxo-1,2-dihydro-6-quinolinesulfonamide] | 18 | 
COc1cc(-c2cc(Cl)ccc2C)ccc1-n1c(=O)ccc2cc(S(=O)(=O)Nc3ccon3)ccc21 [Example 1029, 1-(5′-chloro-3-methoxy-2′-methyl-4-biphenylyl)-N-3-isoxazolyl-2-oxo-1,2-dihydro-6-quinolinesulfonamide] | 3 | 
COc1cc(-c2cc(C)ccc2Cl)ccc1-n1c(=O)ccc2cc(S(=O)(=O)Nc3ccon3)ccc21 [Example 1030, 1-(2′-chloro-3-methoxy-5′-methyl-4-biphenylyl)-N-3-isoxazolyl-2-oxo-1,2-dihydro-6-quinolinesulfonamide] | 12 | 
COc1ccc(Cl)c(-c2ccc(-n3c(=O)ccc4cc(S(=O)(=O)Nc5ccon5)ccc43)c(OC)c2)c1 [Example 1031, 1-(2′-chloro-3,5′-dimethoxy-4-biphenylyl)-N-3-isoxazolyl-2-oxo-1,2-dihydro-6-quinolinesulfonamide] |  | 25
